# According to article PMC7114187 (Antiviral Research, 2008):
# Structures can show the parent of a compound that is named as a salt. Where two headings read alike, the source gives them in different places.
# Tests used:
# [1] = test system: influenza neuraminidase (NA), inactivated viral suspensions of influenza A/Udorn/72 (H3N2); format: biochemical
# influenza viruses = assay: microbe, parasite or virus in culture; format: cell-based, influenza virus; details: for inhibition at 10 µM: read-out: inhibition of CPE at 10 μM
# [2] = target: NA in inactivated viral suspension of influenza A/Udorn/72 (H3N2) (Influenza A virus (H3N2), UniProt P0DOF6); format: biochemical; details: read-out: IC50 NA inhibition
# [3] = test system: influenza A/WSN/33 (H1N1); format: cell-based
# [4] = test system: influenza A/WSN/33 (H1N1); assay: microbe, parasite or virus in culture; format: cell-based; details: read-out: EC50 viral plaque formation
# in vitro = details: dog
# [5] = target: influenza A/WSN/33 (H1N1) polymerase complex (PA, PB1, PB2, NP) (Influenza A virus, UniProt P03427+P03430+P15659); format: cell-based
# NIBRG-14 (H5N1) = assay: microbe, parasite or virus in culture; format: cell-based, influenza NIBRG-14 (H5N1); details: read-out: EC50 viral plaque formation
# [6] = test system: influenza A/Udorn/72 (H3N2); assay: microbe, parasite or virus in culture; format: cell-based; details: read-out: EC50 viral plaque formation
# SARS-CoV = details: cited from earlier work
# [7] = read-out: CPE inhibition IC50 (<10 μM), symbol
# [8] = unidentified influenza virus, MDCK, 72 h, read-out: CPE inhibition IC50 (<10 μM)
# [9] = unidentified influenza virus, MDCK
compound,measurement,setting,value
O=C(O[C@@H]1Cc2c(O)cc(O)cc2O[C@@H]1c1cc(O)c(O)c(O)c1-c1c([C@H]2Oc3cc(O)cc(O)c3C[C@H]2OC(=O)c2cc(O)c(O)c(O)c2)cc(O)c(O)c1O)c1cc(O)c(O)c(O)c1 [2′2′-Bisepigallocatechin digallate],CC50,MDCK cells,> 50 µM
same,NA activity inhibition at 50 μM (%),[1],60.6%
same,IC50,influenza viruses; [7],> 10 µM
"O=C(O)C1=CC(=C(c2ccc(O)c(C(=O)O)c2)c2ccc(O)c(C(=O)O)c2)C=CC1=O [ATA, aurintricarboxylic acid]",IC50,[2],13.8 µM
same,reduction of the viral yield,[3],> 1000 fold
same,reduction of the yield of influenza progeny virus,[3],only marginal activity
same,NA activity inhibition at 50 μM (%),[1],100.0%
same,EC50,"[4]; Influenza A virus, H1N1|WSN, MDCK",4.1 µM
same,IC50,influenza viruses; [8],9.4 µM
same,inhibition at 10 µM,influenza viruses; [9],> 50%
same,CC50,in vitro,95.5 µM
same,inhibition of RdRp-derived expression of CAT,[5],did not inhibit
same,EC50,"NIBRG-14 (H5N1); Influenza A virus, H5N1, MDCK",5.4 µM
same,EC50,"[6]; Influenza A virus, H3N2, MDCK",6.3 µM
same,EC50 for SARS-CoV,SARS-CoV,200 µg/mL
CCCc1ncc(C[n+]2ccccc2C)c(N)n1 [Amprolium],NA activity inhibition at 50 μM (%),[1],95.0%
CC1(C)OCC(C2OC(=O)C(O)=C2O)O1 (stereo not drawn) [Ascorbic acid acetonide],NA activity inhibition at 50 μM (%),[1],83.5%
same,IC50,influenza viruses; [7],> 10 µM
S=C=NCc1ccccc1 [Benzyl isothiocyanate],NA activity inhibition at 50 μM (%),[1],75.5%
CCc1ccc2c(O)c3c(cc2c1C(=O)OC)C(=O)c1c(O)ccc(O)c1C3=O [Bisanhydrorutilantinone],NA activity inhibition at 50 μM (%),[1],71.9%
Cc1cc(=O)c2c(o1)-c1c(cc(O)c(O)c1C(=O)O)OC2 [Citromycetin],NA activity inhibition at 50 μM (%),[1],46.8%
same,IC50,influenza viruses; [7],> 10 µM
CC(=O)[C@@]1(O)CC[C@H]2[C@@H]3C=C(Cl)C4=CC(=O)[C@@H]5C[C@@H]5[C@]4(C)[C@H]3CC[C@@]21C [Cyproterone],NA activity inhibition at 50 μM (%),[1],55.7%
same,IC50,influenza viruses; [7],> 10 µM
COc1ccc(-c2cc(=O)c3c(O)cc(O)cc3o2)cc1O [Diosmetin],NA activity inhibition at 50 μM (%),[1],59.0%
CCOC(=O)C1=C(O)C(=O)N(Cc2ccccc2)C1 [Ethyl1-benzyl-3-hydroxy-2-oxo(5H)pyrrole-4-carboxylate],NA activity inhibition at 50 μM (%),[1],71.9%
"CCC(CC)O[C@@H]1C=C(C(=O)O)C[C@H](N)[C@H]1NC(C)=O [GS4071, Oseltamivir carboxylate]",reduction in the yield of progeny virus,[3],no reduction
same,reduction of the viral yield,[3],effective to reduce the viral yield
same,NA activity inhibition at 50 μM (%),[1],100.0%
same,EC50,[4],~0.04 µM
same,IC50,influenza viruses; read-out: CPE inhibition IC50 (<10 μM),0.1 µM
same,CC50,in vitro,> 25 µM
same,EC50,[6],~0.04 µM
O=C(/C=C/c1ccc(O)cc1)c1ccc(O)cc1O [Isoliquiritigenin],NA activity inhibition at 50 μM (%),[1],62.6%
CC(=O)N1CCN(c2ccc(OCC3COC(Cn4ccnc4)(c4ccc(Cl)cc4Cl)O3)cc2)CC1 (stereo not drawn) [Ketoconazole],NA activity inhibition at 50 μM (%),[1],72.2%
COC(=O)C(N)CS (stereo not drawn) [Mecysteine hydrochloride],NA activity inhibition at 50 μM (%),[1],51.3%
Cc1cnc(NC(=O)C2=C(O)c3ccccc3S(=O)(=O)N2C)s1 [Meloxicam],NA activity inhibition at 50 μM (%),[1],62.1%
O=c1c(O)c(-c2cc(O)c(O)c(O)c2)oc2cc(O)cc(O)c12 [Myricetin],NA activity inhibition at 50 μM (%),[1],61.6%
CO[C@H]1C[C@H](O[C@H]2CC[C@]3(C)[C@H]4CC[C@]5(C)[C@@H](C6=CC(=O)OC6)CC[C@]5(O)[C@@H]4CC[C@]3(O)C2)O[C@H](C)[C@H]1O [Periplocymarin],NA activity inhibition at 50 μM (%),[1],75.2%
same,IC50,influenza viruses; [8],0.3 µM
same,inhibition at 10 µM,influenza viruses; [9],> 50%
same,CC50,in vitro,< 50 µM
C1CNCCN1 [Piperazine],NA activity inhibition at 50 μM (%),[1],100.0%
O=C(O)c1cc(O)c2c(c1)[C@H]([C@H]1c3cc(C(=O)O)cc(O)c3C(=O)c3c(O[C@@H]4O[C@H](CO)[C@@H](O)[C@H](O)[C@H]4O)cccc31)c1cccc(O[C@@H]3O[C@H](CO)[C@@H](O)[C@H](O)[C@H]3O)c1C2=O [Sennoside A],NA activity inhibition at 50 μM (%),[1],61.9%
N#Cc1c(Cl)c(Cl)c(Cl)c(C#N)c1Cl [Tetrachloroisophthalonitrile],NA activity inhibition at 50 μM (%),[1],76.9%
same,IC50,influenza viruses; [7],> 10 µM
O=C(O[C@@H]1Cc2c(O)cc(O)cc2O[C@@H]1c1cc(O)c(=O)c2c(O)c(O)cc([C@H]3Oc4cc(O)cc(O)c4C[C@H]3OC(=O)c3cc(O)c(O)c(O)c3)c2c1)c1cc(O)c(O)c(O)c1 [Theaflavin digallate],NA activity inhibition at 50 μM (%),[1],61.5%
